We go through three compounds from article PMC12210912, “Pharmacologic properties and inhibitory activity of 6-azasteroids against Mycobacterium leprae in vivo and in vitro” (Microbiology Spectrum, 2025).

The target in one data set is T1, LXRα (Homo sapiens, UniProt Q13133).
T1 construct: Eurofins (assay provider); host or cells: E. coli
T1 sequence (Q13133 1-447): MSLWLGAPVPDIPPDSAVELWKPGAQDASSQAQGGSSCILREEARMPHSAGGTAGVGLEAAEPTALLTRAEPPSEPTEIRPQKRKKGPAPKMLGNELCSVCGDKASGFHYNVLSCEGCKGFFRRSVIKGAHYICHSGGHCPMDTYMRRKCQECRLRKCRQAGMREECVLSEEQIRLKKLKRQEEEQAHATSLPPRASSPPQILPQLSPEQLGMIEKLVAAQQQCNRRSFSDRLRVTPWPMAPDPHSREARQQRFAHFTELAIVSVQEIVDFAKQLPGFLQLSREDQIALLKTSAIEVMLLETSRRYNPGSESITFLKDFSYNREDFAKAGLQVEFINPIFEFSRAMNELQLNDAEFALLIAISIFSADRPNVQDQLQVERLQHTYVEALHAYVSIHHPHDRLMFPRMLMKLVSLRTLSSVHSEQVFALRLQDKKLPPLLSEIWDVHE
Put plainly: LXRα radioligand binding inhibition. The following applies: [3H]T0901317 binding, recombinant protein; for % inhibition observed, LXRα: 10 µM; for inhibition at 10 µM: read-out: % inhibition observed, LXRα. As for the experimental part:
(§1) Four nuclear receptors: glucocorticoid, androgen, LXRα, and LXRβ were assayed. Inhibition of agonist binding to each of the receptors was carried out following a standard protocol by Eurofins, Inc., USA. Compounds were tested at 10 µM. Compound binding was measured by scintillation counting and was calculated as a % inhibition of the binding of a radioactively labeled ligand specific for each target. Percent inhibition of control specific binding was expressed as
(§2) 100−[(measured specific binding)/(control specific binding)∗100]
(§3) where measured specific binding is the amount of radioactive ligand binding obtained in the presence of test compounds.
(§4) (iii) LXRα (human) recombinant protein expressed in E. coli; agonist radioligand 20 nM [^3H] […] (iv) LXRβ (human) recombinant protein expressed in E. coli; agonist radioligand 20 nM [^3H]

The next data set addresses T2, LXRβ (Homo sapiens, UniProt P55055).
T2 construct: Eurofins (assay provider); host or cells: E. coli
T2 sequence (P55055 1-460): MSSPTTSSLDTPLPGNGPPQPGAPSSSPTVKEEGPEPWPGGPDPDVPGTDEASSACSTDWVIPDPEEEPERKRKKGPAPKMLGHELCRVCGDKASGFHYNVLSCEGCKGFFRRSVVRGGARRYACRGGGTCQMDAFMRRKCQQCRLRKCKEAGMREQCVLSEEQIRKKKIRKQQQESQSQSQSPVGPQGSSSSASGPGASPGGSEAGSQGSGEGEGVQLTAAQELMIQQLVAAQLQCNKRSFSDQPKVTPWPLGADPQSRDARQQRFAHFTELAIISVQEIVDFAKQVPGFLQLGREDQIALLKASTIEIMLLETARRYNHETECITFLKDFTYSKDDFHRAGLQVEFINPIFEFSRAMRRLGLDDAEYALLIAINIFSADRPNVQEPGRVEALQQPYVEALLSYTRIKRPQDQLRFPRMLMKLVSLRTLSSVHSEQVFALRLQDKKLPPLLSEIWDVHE
Put plainly: LXRβ radioligand binding inhibition. The settings on record: [3H]T0901317 binding, recombinant protein; for % inhibition observed, LXRβ: 10 µM; for inhibition at 10 µM: read-out: % inhibition observed, LXRβ. The method, then:
as §1, §2, §3, §4

A further data set has as its target T3, hERG channel (Homo sapiens, UniProt Q12809).
T3 construct: host or cells: HEK 293
The data set is described as follows: hERG potassium channel current inhibition, whole-cell patch clamp. It is filed as cell-based. The settings on record: hERG-expressing HEK 293 cells, whole-cell recording, 25 °C. As for the experimental part:
Inhibition of human ether-a-go-go-related gene (hERG) potassium channel current was carried out following a standard protocol by Pharmaron, Inc. hERG stably expressed HEK 293 cell line (Cat# K1236) was purchased from Invitrogen (Thermo Fisher Scientific, USA). The cells are cultured in 90% DMEM, 10% dialyzed FBS, 0.1 mM NEAA, 25 mM HEPES, 100 U/mL Penicillin-Streptomycin, 5 µg/mL Blasticidin, and 400 µg/mL Geneticin. Cells are split using TrypLE Express about three times a week and maintained between ~40% and ~80% confluence. Before the assay, the cells were plated onto the coverslips at 5 × 10^5 cells/6 cm cell culture dish and induced with doxycycline at 1 µg/mL for 48 h. Test compound was initially prepared in DMSO with final concentration of 30 mM as stock solution. Then stock solution of test compound was serial-diluted by ratio of 1:3 with DMSO to prepare additional four intermedial solutions including 10, 3.33, 1.11, 0.37 mM, respectively. […] 5 doses were challenged to the patched cells for IC50 determination.
The voltage-gated hERG potassium channel current was recorded at room temperature (25 °C) from randomly selected transfected cells using whole-cell recording technique with a Multiclamp 700B amplifier (Molecular Devices, US) and an EPC10 microamplifier (HEKA, USA). Extracellular solution (in mM): 132 NaCl, 4 KCl, 3 CaCl2, 0.5 MgCl2, 11.1 glucose, and 10 HEPES (pH adjusted to 7.35 with NaOH). Intracellular solution (in mM): 70 KF, 60 KCl, 15 NaCl, 5 EGTA, and 5 HEPES (pH adjusted to 7.35 with KOH).
The holding potential was set to −90 mV for 1 s; recording current at 50 kHz and filter at 10 kHz. Leaking current was tested at −80 mV for 500 ms. […] The current was recorded for 120 s to assess the current stability. […] After allowing the current to stabilize for 3 min, compound was applied. hERG current in the presence of test compound were recorded for approximately 5 min to reach steady state and then five sweeps were captured. […] Percent current inhibition was calculated using the following equation. […]

A further data set deals with THP-1 cells. The following applies: cited from earlier work.

Read-outs that look alike come from different tables or passages of the source.

Usually inhibition stands for the relative decrease from the control value, in per cent. Usually IC50 stands for the concentration at which inhibition is half-maximal.

T3 sequence (Q12809 whole entry): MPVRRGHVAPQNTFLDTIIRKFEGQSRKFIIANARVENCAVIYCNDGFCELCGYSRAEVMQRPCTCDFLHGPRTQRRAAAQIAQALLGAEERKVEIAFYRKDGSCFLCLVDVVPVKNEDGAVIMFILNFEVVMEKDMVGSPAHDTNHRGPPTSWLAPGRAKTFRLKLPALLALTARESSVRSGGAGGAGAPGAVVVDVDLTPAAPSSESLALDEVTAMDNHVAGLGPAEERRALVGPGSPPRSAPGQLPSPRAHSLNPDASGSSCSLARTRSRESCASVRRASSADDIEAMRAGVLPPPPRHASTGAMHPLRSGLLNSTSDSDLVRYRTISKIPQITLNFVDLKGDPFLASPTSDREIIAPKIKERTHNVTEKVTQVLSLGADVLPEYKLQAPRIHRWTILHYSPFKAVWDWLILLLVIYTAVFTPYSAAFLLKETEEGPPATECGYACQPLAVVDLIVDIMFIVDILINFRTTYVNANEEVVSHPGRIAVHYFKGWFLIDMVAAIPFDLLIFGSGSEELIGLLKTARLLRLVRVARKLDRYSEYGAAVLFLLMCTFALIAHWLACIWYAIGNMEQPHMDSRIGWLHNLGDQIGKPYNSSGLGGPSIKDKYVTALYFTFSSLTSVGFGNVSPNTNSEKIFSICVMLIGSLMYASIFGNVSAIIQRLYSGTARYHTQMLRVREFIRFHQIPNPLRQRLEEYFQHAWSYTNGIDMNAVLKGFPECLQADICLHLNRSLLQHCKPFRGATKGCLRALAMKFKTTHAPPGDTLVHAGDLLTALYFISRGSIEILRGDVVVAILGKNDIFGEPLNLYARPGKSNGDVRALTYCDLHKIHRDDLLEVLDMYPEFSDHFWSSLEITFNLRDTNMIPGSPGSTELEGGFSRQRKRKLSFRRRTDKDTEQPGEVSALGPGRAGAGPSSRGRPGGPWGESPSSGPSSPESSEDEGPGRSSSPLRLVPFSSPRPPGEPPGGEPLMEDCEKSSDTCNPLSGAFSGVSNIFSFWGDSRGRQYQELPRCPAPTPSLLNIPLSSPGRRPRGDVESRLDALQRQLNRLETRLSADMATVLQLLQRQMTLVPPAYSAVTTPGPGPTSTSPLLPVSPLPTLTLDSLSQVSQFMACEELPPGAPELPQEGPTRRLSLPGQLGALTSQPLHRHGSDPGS

In the case of `CC(C)(C)c1ccc(C(C)(C)C)c(NC(=O)C2CCC3C4CNC5=CC(=O)CC[C@]5(C)C4CC[C@]23C)c1` (stereo partly drawn) [Compound 1], on LXRα, the “% inhibition observed, LXRα” value was “significantly inhibit binding” and the inhibition at 10 µM was 53%. Also, on LXRβ, the “% inhibition observed, LXRβ” value is given as “significantly inhibit binding” and the inhibition at 10 µM was found to be 72%. Also, at hERG channel, it took 0.95 µM to reach half-maximal inhibition (IC50). The IC50 with THP-1 cells (read-out: Mammalian cell IC50 Cytotoxicity THP1, THP-1 cells, 72 h, Alamar Blue) is 18 µM.

Turning to `CCCN1CC2C3CCC(C(=O)Nc4cc(C(C)(C)C)ccc4C(C)(C)C)[C@@]3(C)CCC2[C@@]2(C)CCC(=O)C=C12` (stereo partly drawn) [Compound 2], on LXRα, the “% inhibition observed, LXRα” value is “significantly inhibit binding” and the inhibition at 10 µM is 64%. On LXRβ, the “% inhibition observed, LXRβ” value was “significantly inhibit binding” and the inhibition at 10 µM worked out at 69%. For the same compound, the IC50 against hERG channel is 0.74 µM. Also, the IC50 in the data set on THP-1 cells was 24 µM.

In the case of `C[C@]12CCC3C(CNC4=CC(=O)CC[C@@]43C)C1CCC2C(=O)NC(c1ccc(F)cc1)c1ccc(F)cc1` (stereo partly drawn) [Compound 5], on LXRα, the “% inhibition observed, LXRα” value is “low binding” and the inhibition at 10 µM was 11%. Also, on LXRβ, the “% inhibition observed, LXRβ” value was “low binding” and the inhibition at 10 µM was 26%. The same compound returned an IC50 against hERG channel of 3 µM. Moreover, in the data set with THP-1 cells, the IC50 was 24 µM.
